Data as given in US10704076B2, “Multi-tiered high through-put screen for compounds effective against bacterial biofilm and compounds effective for inhibiting and eradicating bacterial biofilm” (University of Cincinnati, priority 2013, dated 2020).

Columns and labels:
A. baumannii biofilm [1] = test: CLSM, co-culture of bacteria with compound (inhibition of biofilm formation); assay type: cell-based, Acinetobacter baumannii
Procedure: (§1) Broad spectrum agents (effective against all three bacterial species) and single agent compounds identified as HTS hits were investigated with CLSM confirmation of inhibition of biofilm formation (culture of bacteria with compounds) or killing of bacteria residing within an established biofilm (compound addition after culturing biofilm). To evaluate inhibition of P. aeruginosa biofilms, bacteria were sub-cultured into 10% L-broth and grown at 37° C. until the OD600 reached 0.25. The bacteria were further diluted 1:100 into a modified 0.5×M63 minimum media (50 mM KH2PO4, 7.5 mM (NH4)2SO4, 9 μM FeSO4, 0.5% casamino acids, 0.2% glucose, and 1 mM MgSO4). A. baumannii biofilms were also grown in 10% L-broth until the OD600 reached 0.05 but diluted 1:10 into 5% L-broth media. S. epidermidis biofilm cultures were grown. Briefly, the bacteria were grown in TSB until the OD600 reached 0.75, and a 1:100 dilution of the bacteria was sub-cultured into phosphate buffered saline (PBS). All of the biofilm bacterial cultures were grown in 96-well plate chambers (MatTek Corp., Ashland, Mass.) in the presence of 10 μM of each compound or DMSO as a control and incubated for 18 hrs at 37° C. To investigate the ability of compounds to kill bacteria within pre-existing biofilms, biofilms were grown under the same conditions, but without test compound. These biofilms were washed once with PBS and incubated an additional 24 hr at 37° C. in PBS containing 300 μM of each compound. All biofilm cultures were then washed twice with 100 μL of PBS and stained using the LIVE/DEAD® BacLight™ Bacterial Viability Kit (Invitrogen). Finally, biofilm images were obtained using a Zeiss LSM510 META Confocal Microscope (Carl Zeiss, Inc., Germany). A 488 nm laser was used in conjunction with a Plan-Apochromat 100×/1.4 Oil DIC objective. Z-stacks were 8 bit and measured 127.3 μm×127.3 μm×16.0 μm in size. The filters used were 505-530 and 620-680 IR, as the excitation and emission wavelengths for red fluorescence are 490 nm and 635 nm, respectively, and 480 nm and 500 nm for green fluorescence. Three dimensional images were generated using the “Projection” ability on LSM Image Browser software (v.1.4.0.121) or Zeiss LSM image browser software version 3.5 (Carl Zeiss, Inc., Germany), and Live/Dead calculations were conducted based upon these images using MacBiophotonics ImageJ following the guidelines in the cell counting guide by C. Labno {Rasband, 1997-2011 #25; Labno, #2} at the University of Chicago Integrated Light Microscopy Core. The thickness of the biofilm was calculated using Comstat software. A hit was defined as a >50% dead to live ratio.
(§2) The CLSM experiment was performed in one or two or all bacteria used in this study depending on its activity. For the validation of HTS hits, 10 μM of compound was added to each bacterial suspension and the resulting biofilm stained with LIVE/DEAD® BacLight™ Bacterial Viability Kit. The images were analyzed to determine the live and dead ratios of biofilm bacteria, the thickness of biofilms, and structural attributes of biofilms.

A. baumannii biofilm [2] = test: HTS live biofilm assay (resazurin metabolic activity); assay type: cell-based, Acinetobacter baumannii; settings: Acinetobacter baumannii, 10 point dose-response 0.1-50 μM
Source text: (§3) Each HTS tier consisted of: (i) primary screening, (ii) confirmation screening and (iii) dose-response curve screening. Each tier of HTS included three distinct biological process assays. The first assay was an optical density measurement of bacteria growth in the presence of each compound reported as a total bacteria growth. In the second assay, resazurin solution was used as an indicator of metabolic activity to measure the live bacteria in the biofilms, reported as live biofilm. The final assay was crystal violet staining, which indicated the amount of biofilm formation and the effect of each compound on this process, reported as total biofilm formation.
(§4) Briefly, stationary phase bacteria grown in L-broth were diluted 1:200 into fresh L-broth and 50 μM of each test compound. After 20-24 hours, the optical density (OD560) of each suspension was measured using Zeiss Plate::Vision with a 560 BP filter (560 nm, 2.5% light intensity, 1 mm focus to bottom of plate, and exposure time of 100 ms). To measure bacterial viability in the biofilm, 50 μl of a 5 mg/ml resazurin solution in L-broth was added to each well after washing 3 times with 50 μl of PBS. The plates were then incubated at 37° C. for 30 or 180 min for A. baumannii and P. aeruginosa biofilms, respectively. Fluorescence was measured using Zeiss Plate::Vision at excitation and emission wavelengths of 535 and 580 nm, 100 ms exposure time, 2.5% intensity and a 2 mm focus to the bottom of the biofilms. To assess biofilm formation, plates were washed 3 times with PBS and then 50 μl of 0.01% of crystal violet was added to each well to assess bacterial biofilm formation as described in a similar borosilicate tube assay by O'Toole and Kolter. After incubation at room temperature for 30 min and removal of the crystal violet solution by washing with PBS, 95% ethanol was added to solubilize the crystal violet followed by incubation for 20 min at room temperature. Finally, the optical density of each plate was determined using measured by Zeiss Plate::Vision using the same settings used to measure total bacterial growth. These 3 steps were used in each of the three tiers for the HTS process: (i) single point primary screening at 10 μM, (ii) triplicate confirmation of hits from (i) at 10 μM and (iii) determination of AC50 values in 10 point dose-response at a concentration range of 0.1-50 μM) in hits from (ii). The AC50 represents the concentration of compound that inhibits 50% of bacterial growth, bacterial viability, or biofilm formation. Genedata Screener® Assay Analyzer Software (Ver. 9.0.0 Standard) was used to analyze data from all assay tiers. Compounds with an AC50 of less than 20 μM in one of the biological assays from the dose response screen were subject to additional investigation.

P. aeruginosa biofilm [3] = test: CLSM, co-culture of bacteria with compound (inhibition of biofilm formation); assay type: cell-based, Pseudomonas aeruginosa
Procedure: as §1, §2

A. baumannii biofilm [4] = test: HTS total biofilm formation assay (crystal violet staining); assay type: cell-based, Acinetobacter baumannii; settings: Acinetobacter baumannii, 10 point dose-response 0.1-50 μM
Source text: as §3, §4

P. aeruginosa biofilm [5] = test: HTS live biofilm assay (resazurin metabolic activity); assay type: cell-based; settings: Pseudomonas aeruginosa, 10 point dose-response 0.1-50 μM
Source text: as §3, §4

A. baumannii = test: HTS total bacterial growth assay (optical density OD560); assay type: cell-based, Acinetobacter baumannii; settings: Acinetobacter baumannii, 10 point dose-response 0.1-50 μM, NS* = no sigmoid curve observed, read-out: Total Bacteria Growth AC50
Source text: as §3, §4

P. aeruginosa = test: as above; assay type: cell-based, Pseudomonas aeruginosa; settings: Pseudomonas aeruginosa, 10 point dose-response 0.1-50 μM, read-out: Total Bacteria Growth AC50
Source text: as §3, §4

P. aeruginosa biofilm [6] = test: HTS total biofilm formation assay (crystal violet staining); assay type: cell-based, Pseudomonas aeruginosa; settings: Pseudomonas aeruginosa, 10 point dose-response 0.1-50 μM
Source text: as §3, §4

[7] = system: S. epidermidis established biofilm; test: Killing of established Se biofilm by compounds Se-1 through Se-16; assay type: cell-based, Staphylococcus epidermidis; settings: 300 μM compound, X / O
Source text: This Example illustrates efficacy of compounds Se-1 through Se-16 at inhibiting S. epidermidis biofilm formation and/or killing established S. epidermidis biofilms. Detailed methods, materials and data are set forth in Shea, Chloe, U of Cincinnati Masters Thesis “Effectiveness of Novel Compounds at Inhibiting and Killing P. aeruginosa and S. epidermidis Biofilms” published on Mar. 17, 2013, the entire disclosure of which is incorporated herein by this reference. FIG. 8 illustrates effective inhibition of Se biofilm formation. For these experiments, Se was co-cultured with 10 μM of compounds Se-1 through Se-16 (see Table 5 for compound names and Table 6 for compound structures). A-H represents the top view of the Se biofilm, while the sagittal view is shown in I-P. The control Se biofilm is shown in A/I. Se biofilm formation in the presence of 10 μM of compound Se-3, Se-4, Se-13, Se-14, Se-15 or Se-16 as shown in B/J, C/K, D/L, E/M, F/N, G/O, and H/P, respectively. FIG. 9 illustrates effective killing of established Se biofilm. For this experiment, Se biofilms were treated with 300 μM of compounds Se-1 through Se-16. A-H represents the top view of the Se biofilm, while the sagittal view is shown in I-P. The control Se biofilm is shown in A/I. Effective killing was defined as >50% dead bacteria.

[8] = system: P. aeruginosa established biofilm; test: CLSM, effect of compound on the pre-existing biofilm; assay type: cell-based, Pseudomonas aeruginosa; settings: 300 μM, 24 hr
Procedure: as §1, §2

[9] = CLSM, 10 μM compound, 18 hrs, Y / —

NC1=CC(=O)c2nonc2C1=O [Compound 2, 5-amino-2,1,3-Benzoxadiazole-4,7-dione]
killing of residential bacteria, co-culture (CLSM, in words) (A. baumannii biofilm [1]; 10 μM): effectively killed the residential bacteria
Co-culture of bacteria with compound: Killing (A. baumannii biofilm [1]; [9]): Y (A hit was defined as a >50% dead to live ratio)
AC50 (A. baumannii biofilm [2]): 3.21 µM
killing of residential bacteria, co-culture (CLSM, in words) (P. aeruginosa biofilm [3]; 10 μM): effectively killed the residential bacteria
Co-culture of bacteria with compound: Killing (P. aeruginosa biofilm [3]; [9]): Y (A hit was defined as a >50% dead to live ratio)
AC50 (A. baumannii biofilm [4]): 3.15 µM
AC50 (P. aeruginosa biofilm [5]): 15.2 µM
AC50 (A. baumannii): 2210 nM
AC50 (P. aeruginosa): 9.09 µM
AC50 (P. aeruginosa biofilm [6]): 1430 nM

O=C(Nc1ccc(Cl)cc1)Nc1nnc(C(F)(F)F)s1 [Se10, 1-(4-chlorophenyl)-3-[5-(trifluoromethyl)-1,3,4-thiadiazol-2-yl]urea]
Killing [7]: X (Effective killing was defined as >50% dead bacteria)

CN(C)c1ccc(CN2CCN(C(=O)Nc3ccc(C(F)(F)F)cc3)CC2)cc1 [Se3, 4-{[4-(dimethylamino]phenyl]methyl}-N-[4-(trifluoromethyl]phenyl]piperazine-1-carboxamide]
Killing [7]: X (Effective killing was defined as >50% dead bacteria)

CN(C)c1ccc(C(=C2C=CC(=[N+](C)C)C=C2)c2ccc(N(C)C)cc2)cc1 [Se13, [4-[bis(4-dimethylaminophenyl]methylene]-1-cyclohexa-2,5-dienylidene]-dimethyl-ammonium]
Killing [7]: X (Effective killing was defined as >50% dead bacteria)

N#C/C(=N\Nc1ccc(OC(F)(F)F)cc1)C(=O)c1cccs1 [Se12, (2E]-3-keto-3-(2-thienyl]-2-[[4-(trifluoromethoxy)phenyl]hydrazono]propionitrile]
Killing [7]: X (Effective killing was defined as >50% dead bacteria)

CCCCCCCCCCCCOCC[N+](CCO)(CCO)Cc1ccccc1 [Se4, 2-dodecoxyethyl-bis(2-hydroxyethyl)-(phenylmethyl)ammonium]
Killing [7]: X (Effective killing was defined as >50% dead bacteria)

CC(C)(C)n1cc(C(=O)O)c(=O)c2cc(F)c(N3CCN(C(=S)S)CC3)nc21 [Compound 9, 1-(1,1-dimethylethyl)-1,4-dihydro-6-fluoro-4-oxo-7-(4-dithiocarboxypiperazin-1-yl)-1,8-Naphthyridinyl-3-carboxylic acid]
Co-culture of bacteria with compound: Inhibit biofilm formation (P. aeruginosa biofilm [3]; CLSM, 10 μM compound, 18 hrs): failed to inhibit biofilm formation
AC50 (P. aeruginosa biofilm [5]): 8.14 µM
killing of established P. aeruginosa biofilm (CLSM, in words) [8]: failed to kill bacteria within a biofilm
AC50 (P. aeruginosa): 27.7 µM
AC50 (P. aeruginosa biofilm [6]): 3600 nM

CCc1c(C)[nH]c(CC(=O)O)c1C [Se14, 2-(4-ethyl-3,5-dimethyl-1H-pyrrol-2-yl]acetic acid]
Killing [7]: X (Effective killing was defined as >50% dead bacteria)

O=C(Nc1cccc(F)c1)c1ccccc1NS(=O)(=O)c1ccc(Br)cc1 [Se15, 2-[(4-bromophenyl)sulfonylamino]-N-(3-fluorophenyl)benzamide]
Killing [7]: X (Effective killing was defined as >50% dead bacteria)
